ChEMBL document CHEMBL3885861, “Open TG-GATES”

Organism: Rattus norvegicus
Experiment: Open TG-GATES - Regimen: Daily Repeat
Type: toxicity, organism-based, Sprague-Dawley
Design: regimen Daily Repeat, gender Male, age 6 weeks
Conditions: in vivo, po, 0 mg/kg, route gavage, dose level Control; for APTT / Bas / Eos / Fbg / Hb / Ht / Lym / MCH / MCHC / MCV / Mono / Neu / PT / Plat / RBC / Ret / WBC: tissue Blood; for KIDNEY_L / KIDNEY_R / KIDNEY_TOTAL: tissue Kidney; for LIVER: tissue Liver; for A/G / ALP / ALT / AST / BUN / CRE / Ca / Cl / DBIL / GLC / IP / K / LDH / Na / PL / RALB / TBIL / TC / TG / TP / gamma-GTP: tissue Plasma

SMILES: CN/C(=N/CCSCc1nc[nH]c1C)NC#N [CIMETIDINE]
- TERMINAL_BW (72 h, time 3 day): 226.2 g
- APTT (72 h, time 3 day): 20.3 s
- Bas (72 h, time 3 day): 0.4%
- Eos (72 h, time 3 day): 0.6%
- Fbg (72 h, time 3 day): 220.2 mg/dL
- Hb (72 h, time 3 day): 13.5 g/dL
- Ht (72 h, time 3 day): 40.5%
- Lym (72 h, time 3 day): 84.6%
- MCH (72 h, time 3 day): 21 pg
- MCHC (72 h, time 3 day): 33.4%
- MCV (72 h, time 3 day): 63.1 fL
- Mono (72 h, time 3 day): 2.2%
- Neu (72 h, time 3 day): 11.2%
- PT (72 h, time 3 day): 12.7 s
- Plat (72 h, time 3 day): 132.2 x10_4/uL
- RBC (72 h, time 3 day): 642.2 x10_4/ul
- Ret (72 h, time 3 day): 6.3%
- WBC (72 h, time 3 day): 102.1 x10_2/uL
- KIDNEY_L (72 h, time 3 day): 1 g
- KIDNEY_R (72 h, time 3 day): 1 g
- KIDNEY_TOTAL (72 h, time 3 day): 2 g
- LIVER (72 h, time 3 day): 10.7 g
- A/G (72 h, time 3 day): 1.7
- ALP (72 h, time 3 day): 1069.6 IU/L
- ALT (72 h, time 3 day): 36.6 IU/L
- AST (72 h, time 3 day): 71 IU/L
- BUN (72 h, time 3 day): 14.4 mg/dL
- CRE (72 h, time 3 day): 0.4 mg/dL
- Ca (72 h, time 3 day): 10.7 mg/dL
- Cl (72 h, time 3 day): 102.8 meq/L
- DBIL (72 h, time 3 day): 0.1 mg/dL
- GLC (72 h, time 3 day): 198.2 mg/dL
- IP (72 h, time 3 day): 7.1 mg/dL
- K (72 h, time 3 day): 3.7 meq/L
- LDH (72 h, time 3 day): 150 IU/L
- Na (72 h, time 3 day): 141.2 meq/L
- PL (72 h, time 3 day): 158 mg/dL
- RALB (72 h, time 3 day): 3.5 g/dL
- TBIL (72 h, time 3 day): 0.2 mg/dL
- TC (72 h, time 3 day): 75.8 mg/dL
- TG (72 h, time 3 day): 103 mg/dL
- TP (72 h, time 3 day): 5.7 g/dL
- gamma-GTP (72 h, time 3 day): 1 IU/L
- TERMINAL_BW ([…], time 7 day): 261.3 g
- TERMINAL_BW ([…], time 14 day): 315.1 g
- TERMINAL_BW ([…], time 28 day): 384.7 g
- APTT ([…], time 7 day): 18.7 s
- Bas ([…], time 7 day): 0.2%
- Eos ([…], time 7 day): 0.6%
- Fbg ([…], time 7 day): 228 mg/dL
- Hb ([…], time 7 day): 14 g/dL
- Ht ([…], time 7 day): 41.6%
- Lym ([…], time 7 day): 80%
- MCH ([…], time 7 day): 21.5 pg
- MCHC ([…], time 7 day): 33.5%
- MCV ([…], time 7 day): 64.2 fL
- Mono ([…], time 7 day): 2.2%
- Neu ([…], time 7 day): 15%
- PT ([…], time 7 day): 12.1 s
- Plat ([…], time 7 day): 129.9 x10_4/uL
- RBC ([…], time 7 day): 649 x10_4/ul
- Ret ([…], time 7 day): 5.8%
- WBC ([…], time 7 day): 117.4 x10_2/uL
- APTT ([…], time 14 day): 18.6 s
- Bas ([…], time 14 day): 0%
- Eos ([…], time 14 day): 0.8%
- Fbg ([…], time 14 day): 218.6 mg/dL
- Hb ([…], time 14 day): 14.3 g/dL
- Ht ([…], time 14 day): 43.5%
- Lym ([…], time 14 day): 79.2%
- MCH ([…], time 14 day): 20 pg
- MCHC ([…], time 14 day): 33%
- MCV ([…], time 14 day): 60.7 fL
- Mono ([…], time 14 day): 2.8%
- Neu ([…], time 14 day): 16.8%
- PT ([…], time 14 day): 12.1 s
- Plat ([…], time 14 day): 129.1 x10_4/uL
- RBC ([…], time 14 day): 717.8 x10_4/ul
- Ret ([…], time 14 day): 4.6%
- WBC ([…], time 14 day): 120.6 x10_2/uL
- APTT ([…], time 28 day): 20.4 s
- Bas ([…], time 28 day): 0%
- Eos ([…], time 28 day): 1.2%
- Fbg ([…], time 28 day): 205.8 mg/dL
- Hb ([…], time 28 day): 15.1 g/dL
- Ht ([…], time 28 day): 44.2%
- Lym ([…], time 28 day): 79.2%
- MCH ([…], time 28 day): 19.2 pg
- MCHC ([…], time 28 day): 34.1%
- MCV ([…], time 28 day): 56.4 fL
- Mono ([…], time 28 day): 2.2%
- Neu ([…], time 28 day): 16.6%
- PT ([…], time 28 day): 12.9 s
- Plat ([…], time 28 day): 99.1 x10_4/uL
- RBC ([…], time 28 day): 784 x10_4/ul
- Ret ([…], time 28 day): 2.6%
- WBC ([…], time 28 day): 121.2 x10_2/uL
- KIDNEY_L ([…], time 7 day): 1.1 g
- KIDNEY_R ([…], time 7 day): 1.1 g
- KIDNEY_TOTAL ([…], time 7 day): 2.1 g
- KIDNEY_L ([…], time 14 day): 1.3 g
- KIDNEY_R ([…], time 14 day): 1.2 g
- KIDNEY_TOTAL ([…], time 14 day): 2.5 g
- KIDNEY_L ([…], time 28 day): 1.5 g
- KIDNEY_R ([…], time 28 day): 1.5 g
- KIDNEY_TOTAL ([…], time 28 day): 2.9 g
- LIVER ([…], time 7 day): 12.5 g
- LIVER ([…], time 14 day): 14.1 g
- LIVER ([…], time 28 day): 15.5 g
- A/G ([…], time 7 day): 1.5
- ALP ([…], time 7 day): 1067.6 IU/L
- ALT ([…], time 7 day): 33.2 IU/L
- AST ([…], time 7 day): 62.4 IU/L
- BUN ([…], time 7 day): 16.6 mg/dL
- CRE ([…], time 7 day): 0.4 mg/dL
- Ca ([…], time 7 day): 10.7 mg/dL
- Cl ([…], time 7 day): 103.2 meq/L
- DBIL ([…], time 7 day): 0.1 mg/dL
- GLC ([…], time 7 day): 236.6 mg/dL
- IP ([…], time 7 day): 8 mg/dL
- K ([…], time 7 day): 3.9 meq/L
- LDH ([…], time 7 day): 165.2 IU/L
- Na ([…], time 7 day): 141.2 meq/L
- PL ([…], time 7 day): 156.4 mg/dL
- RALB ([…], time 7 day): 3.4 g/dL
- TBIL ([…], time 7 day): 0.2 mg/dL
- TC ([…], time 7 day): 73.6 mg/dL
- TG ([…], time 7 day): 138.8 mg/dL
- TP ([…], time 7 day): 5.7 g/dL
- gamma-GTP ([…], time 7 day): 1 IU/L
- A/G ([…], time 14 day): 1.4
- ALP ([…], time 14 day): 861.4 IU/L
- ALT ([…], time 14 day): 41.4 IU/L
- AST ([…], time 14 day): 72.8 IU/L
- BUN ([…], time 14 day): 17 mg/dL
- CRE ([…], time 14 day): 0.4 mg/dL
- Ca ([…], time 14 day): 10.6 mg/dL
- Cl ([…], time 14 day): 102.6 meq/L
- DBIL ([…], time 14 day): 0.1 mg/dL
- GLC ([…], time 14 day): 215.2 mg/dL
- IP ([…], time 14 day): 7.4 mg/dL
- K ([…], time 14 day): 4.1 meq/L
- LDH ([…], time 14 day): 169.6 IU/L
- Na ([…], time 14 day): 141.4 meq/L
- PL ([…], time 14 day): 155.6 mg/dL
- RALB ([…], time 14 day): 3.4 g/dL
- TBIL ([…], time 14 day): 0.2 mg/dL
- TC ([…], time 14 day): 70.8 mg/dL
- TG ([…], time 14 day): 168.4 mg/dL
- TP ([…], time 14 day): 5.9 g/dL
- gamma-GTP ([…], time 14 day): 1 IU/L
- A/G ([…], time 28 day): 1.2
- ALP ([…], time 28 day): 772.6 IU/L
- ALT ([…], time 28 day): 31 IU/L
- AST ([…], time 28 day): 59.6 IU/L
- BUN ([…], time 28 day): 16.2 mg/dL
- CRE ([…], time 28 day): 0.5 mg/dL
- Ca ([…], time 28 day): 10.1 mg/dL
- Cl ([…], time 28 day): 102.4 meq/L
- DBIL ([…], time 28 day): 0.1 mg/dL
- GLC ([…], time 28 day): 235.6 mg/dL
- IP ([…], time 28 day): 6.6 mg/dL
- K ([…], time 28 day): 3.6 meq/L
- LDH ([…], time 28 day): 151.6 IU/L
- Na ([…], time 28 day): 140.6 meq/L
- PL ([…], time 28 day): 137.4 mg/dL
- RALB ([…], time 28 day): 3.3 g/dL
- TBIL ([…], time 28 day): 0.2 mg/dL
- TC ([…], time 28 day): 61.8 mg/dL
- TG ([…], time 28 day): 119.8 mg/dL
- TP ([…], time 28 day): 6 g/dL
- gamma-GTP ([…], time 28 day): 1 IU/L
